The values that follow are results of earlier work, collected in patent US20230018472A1, “RHINENCHYSIS COMPOSITION CONTAINING OLOPATADINE” (TOKO YAKUHIN KOGYO CO., LTD., priority 2019, published 2023).

Where two headings read alike, the source gives them in different places.

Consider `CN(C)CC/C=C1/c2ccccc2COc2ccc(CC(=O)O)cc21` [olopatadine], for which the Solubility of olopatadine result (around neutral pH) is “very low” and the Solubility of olopatadine entry (concentration 0.2% or more as free base, solution having pH of 5 or higher) is listed as “not soluble”.
